In publication PMC3930709, “Selective Activation of hTRPV1 by N-Geranyl Cyclopropylcarboxamide, an Amiloride-Insensitive Salt Taste Enhancer” (PLoS ONE, 2014):
Where “and” joins values, the source holds several entries; their conditions need not be identical. Identical values can stand only once.

Assays:
hTRPA1 [1] = target: T1, hTRPA1 (Homo sapiens, UniProt O75762); experiment: Whole-cell patch clamp recording, cells stably expressing hTRPA1; assay type: cell-based; conditions: NGCC 10^3 µM
T1 construct: expressed in transfected cells
Protocol: (§1) Flp-In 293 cell lines stably expressing hTRPA1constructed as previously reported was a gift from the professor Takumi Misaka at University of Tokyo. The hTRPA1-expressing cells were cultured in DMEM containing 10% FBS and 0.02% hygromycin B (Invitrogen). Flp-In 293 cell lines were maintained in DMEM containing 10% FBS. All cells were incubated at 37°C in a humidified atmosphere of 5% CO2.
The whole-cell configuration was used to voltage-clamp at room temperature (22–25°C). Electrodes pulled from glass micropipette capillaries (Sutter Instrument) had resistances of 2–2.5 MΩ, and series resistance errors were compensated >60%. Fast and slow capacitances were compensated before the application of test-pulse. Recordings were performed using aHEKAEPC-10 amplifier with pulse software (HEKA Elektronik). The pipette solution contained: 140 mM KCl, 5 mM MgCl2, 10 mM HEPES, 0.1 mM 1,2-bis(2-aminophenoxy) ethane N,N,N’,N’-tetraacetic acid(BAPTA), 3 mM Na2ATP, and 0.1 mM Na3GTP, adjusted to pH 7.4 with KOH. The external Ringer’s solution used for recording TRPV1 and TRPA1 currents contained: 150 mM NaCl, 5 mM KCl, 1 mM MgCl2, 2 mM EGTA, 10 mM Glucose, and 10 mM HEPES, adjusted to pH 7.4 with NaOH. TRPV1 and TRPA1 currents were recorded by holding the cell at −80 mV. The external Ringer’s solution used for recording ASIC current contained: 160 mM NaCl, 5 mM KCl, 1 mM MgCl2, 2 mM CaCl2, and 10 mM HEPES, adjusted to pH 7.4 with tetramethylammonium hydroxide. For acidic solution of pH 6.0, HEPES was replaced with MES. ASIC currents were recorded by holding the cell at −70 mV. Reagents were obtained as follows: BAPTA, Na2ATP, Na3GTP, EGTA, and tetramethylammonium hydroxide (Sigma), HEPES (Calbiochem), MES (Alfa Aesar), and other chemicals (Merck).

hTRPV1 = target: T2, hTRPV1 (Homo sapiens, UniProt Q8NER1); experiment: Measurement of Ca2+ influx (Fluo-4 AM, FlexStation III) in hTRPV1-expressing cells; assay type: cell-based
T2 construct: expressed in transfected cells; host or cells: HEK293T
Protocol: hTRPV1 was constructed by amplification of the hTRPV1 region (NCBI accession number: NG_029716.1) and cloned into pEAK10 vector (Edge Biosystems, Gaithersburg, MD, USA). The hTRPV1 construct was amplified by PCR and the nucleotide sequence of the hTRPV1 gene was confirmed by sequencing with an ABI 3130 DNA genetic analyzer (Applied Biosystems, Foster City, CA, USA). […] After 6 h, transfected cells were seeded onto 96-well black-wall plate (BD Falcon Labware, Franklin Lakes, NJ, USA) for 18–26 h prior to their use in an experiment. The ligand-induced changes on cytosolic Ca^2+ level were monitored by a FlexStation III microplate reader (Molecular Devices). Fluo-4 AM (5 µM, Molecular Probes, Eugene, OR, USA) in assay buffer was loaded to the cells in 96-well black-wall plates for 30 min at 27°C. After dye treatment, each chemical was added to each well at 17 s and changes on intracellular Ca^2+ level were monitored by relative fluorescence units (ΔRFU, Ex = 485 nm; Em = 516 nm) for 120 s. […] The responses from at least three wells receiving the same stimulus were averaged. Plots of amplitude versus concentration were fitted using the Hill equation.

hTRPA1 [2] = target: T1, hTRPA1; experiment: Measurement of Ca2+ influx (Fluo-4 AM, FlexStation III) in hTRPA1-expressing cells; assay type: cell-based; conditions: hTRPA1-expressing Flp-In 293 cells, Hill fit
Protocol: as §1
The ligand-induced changes on cytosolic Ca^2+ level were monitored by a FlexStation III microplate reader (Molecular Devices). Fluo-4 AM (5 µM, Molecular Probes, Eugene, OR, USA) in assay buffer was loaded to the cells in 96-well black-wall plates for 30 min at 27°C. After dye treatment, each chemical was added to each well at 17 s and changes on intracellular Ca^2+ level were monitored by relative fluorescence units (ΔRFU, Ex = 485 nm; Em = 516 nm) for 120 s. […] The responses from at least three wells receiving the same stimulus were averaged. Plots of amplitude versus concentration were fitted using the Hill equation.

[3] = tested on: non-hTRPA1-expressing Flp-In 293 cells; experiment: Ca2+ imaging of non-hTRPA1-expressing Flp-In 293 cells (control); assay type: cell-based, human; conditions: comparison with hTRPA1-expressing cells
Protocol: Flp-In 293 cell lines stably expressing hTRPA1constructed as previously reported was a gift from the professor […] at University of Tokyo. The hTRPA1-expressing cells were cultured in DMEM containing 10% FBS and 0.02% hygromycin B (Invitrogen). Flp-In 293 cell lines were maintained in DMEM containing 10% FBS. All cells were incubated at 37°C in a humidified atmosphere of 5% CO2. […] Mock-transfected HEK293T cells, hTRPV1-expressing HEK293T cells, non-hTRPA1-expressing Flp-In 293 cells, and hTRPA1-expressing Flp-In 293 cells grown in 96-well black-wall plates were rinsed with assay buffer (130 mM NaCl, 10 mM glucose, 5 mM KCl, 2 […]2, 1.2 mM MgCl2, and 10 mM HEPES, pH 7.4) and loaded with 5 μM Fura-2 AM (Invitrogen) for 30 min at 27°C. The cells were washed with assay buffer and treated with ligands. […] The fluorescence intensities of Fura-2 excited at 340 and 380 nm were simultaneously measured at 510 nm using a computer-controlled filter changer (Lambda DG4; Sutter, San Rafael, CA, USA), an Andor Luca CCD camera (Andor Technology, Belfast, UK), and an inverted fluorescence microscope (IX-71; Olympus, Tokyo, Japan). Intracellular calcium images were recorded every 3-s for 60-s and analyzed using MetaFluor software (Molecular Devices, Sunnyvale, CA, USA).

T2 sequence (Q8NER1 whole entry): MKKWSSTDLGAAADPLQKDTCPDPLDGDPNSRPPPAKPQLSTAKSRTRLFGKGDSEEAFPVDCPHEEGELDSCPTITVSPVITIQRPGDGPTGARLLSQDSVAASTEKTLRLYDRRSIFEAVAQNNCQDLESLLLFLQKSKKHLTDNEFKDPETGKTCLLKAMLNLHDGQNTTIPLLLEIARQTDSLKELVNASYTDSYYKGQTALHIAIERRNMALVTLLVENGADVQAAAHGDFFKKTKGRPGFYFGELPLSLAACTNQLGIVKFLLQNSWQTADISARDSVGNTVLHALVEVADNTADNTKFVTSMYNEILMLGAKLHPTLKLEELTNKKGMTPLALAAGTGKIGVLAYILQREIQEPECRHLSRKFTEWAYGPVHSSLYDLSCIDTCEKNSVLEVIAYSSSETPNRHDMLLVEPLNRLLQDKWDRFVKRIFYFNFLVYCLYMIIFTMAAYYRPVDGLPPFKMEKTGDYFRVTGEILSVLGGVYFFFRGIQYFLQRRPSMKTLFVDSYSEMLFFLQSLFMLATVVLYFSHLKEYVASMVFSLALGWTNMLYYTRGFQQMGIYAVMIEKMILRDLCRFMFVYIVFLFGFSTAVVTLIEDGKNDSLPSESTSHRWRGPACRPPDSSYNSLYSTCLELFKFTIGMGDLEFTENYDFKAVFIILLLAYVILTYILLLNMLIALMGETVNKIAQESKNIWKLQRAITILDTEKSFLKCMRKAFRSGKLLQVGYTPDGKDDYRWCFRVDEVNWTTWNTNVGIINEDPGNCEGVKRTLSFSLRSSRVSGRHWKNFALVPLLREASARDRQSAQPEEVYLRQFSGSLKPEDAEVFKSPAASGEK
T1 sequence (O75762 whole entry): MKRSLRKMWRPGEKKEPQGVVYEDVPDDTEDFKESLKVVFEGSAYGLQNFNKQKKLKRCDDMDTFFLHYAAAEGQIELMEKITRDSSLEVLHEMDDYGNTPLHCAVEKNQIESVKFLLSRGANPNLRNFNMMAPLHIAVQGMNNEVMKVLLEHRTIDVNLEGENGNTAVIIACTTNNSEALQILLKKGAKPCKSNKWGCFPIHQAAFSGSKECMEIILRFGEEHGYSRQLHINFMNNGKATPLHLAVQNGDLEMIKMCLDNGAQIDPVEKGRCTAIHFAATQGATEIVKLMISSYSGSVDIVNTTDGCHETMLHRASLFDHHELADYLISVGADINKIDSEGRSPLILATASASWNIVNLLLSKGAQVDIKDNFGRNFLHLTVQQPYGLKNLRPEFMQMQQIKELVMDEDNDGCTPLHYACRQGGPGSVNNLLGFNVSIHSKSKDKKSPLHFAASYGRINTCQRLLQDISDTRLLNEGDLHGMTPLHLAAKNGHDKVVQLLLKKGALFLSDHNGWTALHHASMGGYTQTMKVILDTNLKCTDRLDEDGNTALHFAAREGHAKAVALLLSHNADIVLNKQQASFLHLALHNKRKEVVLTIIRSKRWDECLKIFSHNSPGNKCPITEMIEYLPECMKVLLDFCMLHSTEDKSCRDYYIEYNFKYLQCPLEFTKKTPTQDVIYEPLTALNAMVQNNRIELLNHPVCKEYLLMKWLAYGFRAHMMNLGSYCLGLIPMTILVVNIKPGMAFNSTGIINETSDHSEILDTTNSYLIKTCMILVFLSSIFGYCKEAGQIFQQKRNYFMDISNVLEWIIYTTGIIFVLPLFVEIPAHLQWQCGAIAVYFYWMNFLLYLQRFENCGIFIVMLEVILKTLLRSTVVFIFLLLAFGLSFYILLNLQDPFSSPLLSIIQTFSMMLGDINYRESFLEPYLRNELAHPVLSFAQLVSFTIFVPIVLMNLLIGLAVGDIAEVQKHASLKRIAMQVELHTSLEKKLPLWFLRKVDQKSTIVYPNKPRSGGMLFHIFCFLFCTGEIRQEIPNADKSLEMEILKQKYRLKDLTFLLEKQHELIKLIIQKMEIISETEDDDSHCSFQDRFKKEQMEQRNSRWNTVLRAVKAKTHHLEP

Question: How did the “inward current in hTRPA1-expressing cells” value (hTRPA1 [1]; AITC 100 µM, holding -80 mV) turn out when `CC(C)=CCC/C(C)=C/CNC(=O)C1CC1` [NGCC, N-geranylcyclopropylcarboxamide] was run?
Answer: Its value is “induced an inward current”.

Question: What about the “amplitude of current compared with AITC (100 µM)” value (hTRPA1 [1]; same cell) of the same compound?
Answer: The value was “bigger than that of AITC”.

Question: What about the EC50 (hTRPV1; hTRPV1-expressing HEK293T cells, Hill fit) of the same compound?
Answer: The EC50 was 115 µM and ~115 µM.

Question: And the “increase in [Ca2+]i relative to capsaicin” value (hTRPV1; hTRPV1-expressing cells)?
Answer: The value was “significantly smaller increase”.

Question: What about the EC50 (hTRPA1 [2]) of the same compound?
Answer: Its EC50 is 83.7 µM.

Question: What about the “NGCC activity in non-hTRPA1-expressing Flp-In 293 cells” value [3] of the same compound?
Answer: Its value is “reacts specifically with hTRPA1”.
